Laboratory results published in paper PMC3720808 (European journal of medicinal chemistry, 2013).
Where two headings read alike, the source gives them in different places.

Tests used:
[1] = system: Colo699 cells; experiment: Soft agar colony formation assay, Colo699; conditions: 2 weeks
[2] = system: A549 cells; experiment: Soft agar colony formation assay, A549; conditions: 2 weeks
[3] = molecular target: T1, Axl (Homo sapiens, UniProt P30530); experiment: Microfluidic capillary electrophoresis; format: biochemical
T1 sequence (P30530 26-894): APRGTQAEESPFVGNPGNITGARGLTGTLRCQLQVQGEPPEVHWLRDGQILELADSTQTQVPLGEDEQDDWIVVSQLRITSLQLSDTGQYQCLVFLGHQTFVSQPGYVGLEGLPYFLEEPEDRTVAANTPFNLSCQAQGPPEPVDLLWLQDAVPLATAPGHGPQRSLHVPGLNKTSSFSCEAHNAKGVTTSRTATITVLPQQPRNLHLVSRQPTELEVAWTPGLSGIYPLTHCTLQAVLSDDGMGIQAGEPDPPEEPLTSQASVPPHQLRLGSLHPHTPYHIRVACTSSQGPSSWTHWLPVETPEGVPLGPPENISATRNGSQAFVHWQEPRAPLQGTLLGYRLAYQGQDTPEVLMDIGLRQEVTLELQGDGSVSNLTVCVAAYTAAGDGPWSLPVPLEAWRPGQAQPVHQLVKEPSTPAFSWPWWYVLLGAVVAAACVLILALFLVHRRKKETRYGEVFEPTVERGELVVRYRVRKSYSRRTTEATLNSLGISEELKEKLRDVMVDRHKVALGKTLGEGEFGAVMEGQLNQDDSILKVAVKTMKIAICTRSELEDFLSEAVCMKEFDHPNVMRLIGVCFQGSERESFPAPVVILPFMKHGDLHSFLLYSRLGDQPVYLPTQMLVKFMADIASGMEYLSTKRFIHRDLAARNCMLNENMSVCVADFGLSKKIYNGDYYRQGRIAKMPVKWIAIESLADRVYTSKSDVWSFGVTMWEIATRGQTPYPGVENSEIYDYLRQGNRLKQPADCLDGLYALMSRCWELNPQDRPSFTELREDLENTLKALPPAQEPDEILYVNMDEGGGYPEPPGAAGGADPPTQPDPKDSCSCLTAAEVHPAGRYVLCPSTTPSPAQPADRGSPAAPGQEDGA

[4] = molecular target: T2, Tyro3 (Homo sapiens, UniProt Q06418); experiment: Microfluidic capillary electrophoresis; format: biochemical
T2 sequence (Q06418 41-890): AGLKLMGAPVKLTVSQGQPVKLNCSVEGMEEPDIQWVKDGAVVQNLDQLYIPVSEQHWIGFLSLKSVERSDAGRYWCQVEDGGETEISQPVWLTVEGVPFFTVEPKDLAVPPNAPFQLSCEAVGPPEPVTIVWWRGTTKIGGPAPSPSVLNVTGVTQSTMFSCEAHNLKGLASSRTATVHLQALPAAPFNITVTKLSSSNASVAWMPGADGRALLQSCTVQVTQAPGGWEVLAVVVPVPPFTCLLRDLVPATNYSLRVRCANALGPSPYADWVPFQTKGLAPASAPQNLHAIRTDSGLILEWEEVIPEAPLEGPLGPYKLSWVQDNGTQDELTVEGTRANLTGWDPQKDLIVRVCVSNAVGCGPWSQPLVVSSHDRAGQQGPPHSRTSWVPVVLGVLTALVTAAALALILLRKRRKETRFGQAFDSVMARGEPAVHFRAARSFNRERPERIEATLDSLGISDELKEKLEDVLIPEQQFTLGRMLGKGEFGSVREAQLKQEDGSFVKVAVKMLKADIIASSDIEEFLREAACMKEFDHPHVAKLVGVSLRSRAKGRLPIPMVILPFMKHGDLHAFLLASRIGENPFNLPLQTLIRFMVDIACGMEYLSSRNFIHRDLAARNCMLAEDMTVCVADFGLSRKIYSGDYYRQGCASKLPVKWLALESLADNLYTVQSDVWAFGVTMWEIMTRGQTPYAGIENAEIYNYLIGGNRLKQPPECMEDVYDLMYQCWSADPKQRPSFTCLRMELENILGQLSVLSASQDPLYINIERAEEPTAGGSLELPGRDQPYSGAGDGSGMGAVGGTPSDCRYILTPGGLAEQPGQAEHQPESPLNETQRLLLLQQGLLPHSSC

[5] = molecular target: T3, Mer (Homo sapiens, UniProt Q12866); experiment: Microfluidic capillary electrophoresis; format: biochemical
T3 sequence (Q12866 21-999): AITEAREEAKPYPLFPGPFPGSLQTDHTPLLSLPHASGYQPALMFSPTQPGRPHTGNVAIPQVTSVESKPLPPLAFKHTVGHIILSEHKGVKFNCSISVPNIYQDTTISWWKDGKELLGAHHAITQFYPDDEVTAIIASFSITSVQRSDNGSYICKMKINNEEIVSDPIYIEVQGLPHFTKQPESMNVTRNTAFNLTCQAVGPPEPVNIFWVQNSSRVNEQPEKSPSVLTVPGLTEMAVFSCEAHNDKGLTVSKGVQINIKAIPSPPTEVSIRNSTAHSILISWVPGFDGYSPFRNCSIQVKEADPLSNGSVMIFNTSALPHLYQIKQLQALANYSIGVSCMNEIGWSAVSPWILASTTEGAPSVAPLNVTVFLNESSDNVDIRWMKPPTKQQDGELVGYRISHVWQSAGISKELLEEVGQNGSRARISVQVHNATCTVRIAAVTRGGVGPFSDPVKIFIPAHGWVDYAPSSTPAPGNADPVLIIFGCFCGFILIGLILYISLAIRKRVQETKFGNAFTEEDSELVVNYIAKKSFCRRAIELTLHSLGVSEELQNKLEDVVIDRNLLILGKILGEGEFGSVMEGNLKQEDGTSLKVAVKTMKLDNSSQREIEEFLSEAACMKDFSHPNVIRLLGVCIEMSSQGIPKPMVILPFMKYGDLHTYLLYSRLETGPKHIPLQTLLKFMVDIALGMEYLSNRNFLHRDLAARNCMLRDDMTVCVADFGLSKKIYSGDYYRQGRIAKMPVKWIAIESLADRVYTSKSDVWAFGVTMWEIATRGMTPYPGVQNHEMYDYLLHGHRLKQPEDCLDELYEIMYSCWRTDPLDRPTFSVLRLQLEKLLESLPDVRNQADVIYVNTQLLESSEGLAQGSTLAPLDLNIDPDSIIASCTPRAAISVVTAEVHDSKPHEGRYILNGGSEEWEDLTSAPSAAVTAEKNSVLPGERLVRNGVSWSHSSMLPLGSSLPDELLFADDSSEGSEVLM

[6] = molecular target: hERG channel (Homo sapiens, UniProt Q12809); experiment: hERG PatchXpress assay / hERG binding assay; conditions: read-out: hERG EC50
hERG channel, sequence (Q12809 whole entry): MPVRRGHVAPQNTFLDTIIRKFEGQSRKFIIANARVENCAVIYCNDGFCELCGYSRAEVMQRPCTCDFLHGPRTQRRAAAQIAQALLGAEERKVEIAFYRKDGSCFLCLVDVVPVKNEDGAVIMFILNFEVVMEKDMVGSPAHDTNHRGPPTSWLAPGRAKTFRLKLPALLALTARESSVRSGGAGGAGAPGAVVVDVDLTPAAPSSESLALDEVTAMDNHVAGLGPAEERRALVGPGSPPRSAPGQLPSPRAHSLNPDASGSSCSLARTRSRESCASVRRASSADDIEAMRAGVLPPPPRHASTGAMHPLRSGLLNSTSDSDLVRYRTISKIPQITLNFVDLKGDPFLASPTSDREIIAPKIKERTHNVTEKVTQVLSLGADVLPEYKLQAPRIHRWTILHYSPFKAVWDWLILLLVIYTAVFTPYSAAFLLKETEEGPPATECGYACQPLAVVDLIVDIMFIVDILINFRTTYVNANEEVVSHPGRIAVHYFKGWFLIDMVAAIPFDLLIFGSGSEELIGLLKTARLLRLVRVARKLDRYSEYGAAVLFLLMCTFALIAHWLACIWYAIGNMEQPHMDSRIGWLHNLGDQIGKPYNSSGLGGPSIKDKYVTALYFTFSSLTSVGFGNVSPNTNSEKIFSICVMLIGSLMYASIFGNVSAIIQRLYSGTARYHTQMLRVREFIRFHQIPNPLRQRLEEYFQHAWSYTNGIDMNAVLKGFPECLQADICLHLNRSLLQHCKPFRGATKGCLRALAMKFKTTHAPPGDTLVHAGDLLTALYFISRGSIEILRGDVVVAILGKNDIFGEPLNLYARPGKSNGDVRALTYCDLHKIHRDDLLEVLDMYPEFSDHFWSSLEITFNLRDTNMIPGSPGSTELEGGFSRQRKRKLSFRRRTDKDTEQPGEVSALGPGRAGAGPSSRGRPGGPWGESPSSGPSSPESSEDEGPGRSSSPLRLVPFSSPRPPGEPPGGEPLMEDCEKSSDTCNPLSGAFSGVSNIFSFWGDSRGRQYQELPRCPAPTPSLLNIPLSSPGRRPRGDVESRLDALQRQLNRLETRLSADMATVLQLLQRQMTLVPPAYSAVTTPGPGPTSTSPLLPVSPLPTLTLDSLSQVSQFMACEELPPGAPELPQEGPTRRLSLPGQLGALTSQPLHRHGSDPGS

IC50 [3]	IC50 [4]	Compound	further results
		CCCCNc1ncc2c(-c3ccc(S(=O)(=O)N4CCOCC4)cc3)nn([C@H]3CC[C@H](O)CC3)c2n1 [Compound 35, trans-4-(6-(Butylamino)-3-(4-(morpholinosulfonyl)phenyl)-1H-pyrazolo[3,4-d]pyrimidin-1-yl)cyclohexanol]	colony formation in soft agar [1]: inhibited colony formation; colony formation in soft agar [2]: inhibited colony formation
23 nM	76 nM	CCCCNc1ncc2c(-c3ccc(S(=O)(=O)N4CCC(C(=O)N5CCOCC5)CC4)cc3)nn([C@H]3CC[C@H](O)CC3)c2n1 [Compound 36, trans-(1-((4-(6-(Butylamino)-1-(4-hydroxycyclohexyl)-1H-pyrazolo[3,4-d]pyrimidin-3-yl)phenyl)sulfonyl)piperidin-4-yl)(morpholino)methanone]	IC50 [5]: 1.4 nM
29 nM	54 nM	CCCCNc1ncc2c(-c3ccc(S(N)(=O)=O)cc3)nn([C@H]3CC[C@H](O)CC3)c2n1 [Compound 20, trans-4-(6-(Butylamino)-1-(4-hydroxycyclohexyl)-1H-pyrazolo[3,4-d]pyrimidin-3-yl)benzenesulfonamide]	IC50 [5]: 1.4 nM
59 nM	27 nM	CCCCNc1ncc2c(-c3ccc(S(=O)(=O)NC)cc3)nn(C[C@H]3CC[C@H](N)CC3)c2n1 [Compound 2, 4-(1-((trans-4-Aminocyclohexyl)methyl)-6-(butylamino)-1H-pyrazolo[3,4-d]pyrimidin-3-yl)-N-methylbenzenesulfonamide]	
		CCCCNc1ncc2c(-c3ccc(F)cc3)nn(CC3CCC(N)CC3)c2n1 (stereo not drawn) [UNC569]	EC50 [6]: 1700 nM
6500 nM	290 nM	CCCCNc1ncc2c(-c3ccc(S(=O)(=O)Nc4ccc(F)cc4)cc3)nn([C@H]3CC[C@H](O)CC3)c2n1 [Compound 27, trans-4-(6-(Butylamino)-1-(4-hydroxycyclohexyl)-1H-pyrazolo[3,4-d]pyrimidin-3-yl)-N-(4-fluorophenyl)benzenesulfonamide]	
350 nM	45 nM	CCCCNc1ncc2c(-c3ccc(S(=O)(=O)NC4CCCCC4)cc3)nn([C@H]3CC[C@H](O)CC3)c2n1 [Compound 25, trans-4-(6-(Butylamino)-1-(4-hydroxycyclohexyl)-1H-pyrazolo[3,4-d]pyrimidin-3-yl)-N-cyclohexylbenzenesulfonamide]	
120 nM	68 nM	CCCCNc1ncc2c(-c3ccc(S(=O)(=O)NC(C)C)cc3)nn([C@H]3CC[C@H](O)CC3)c2n1 [Compound 22, trans-4-(6-(Butylamino)-1-(4-hydroxycyclohexyl)-1H-pyrazolo[3,4-d]pyrimidin-3-yl)-N-isopropylbenzenesulfonamide]	
110 nM	35 nM	CCCCNc1ncc2c(-c3ccc(NS(C)(=O)=O)cc3)nn([C@H]3CC[C@H](O)CC3)c2n1 [Compound 18, trans-N-(4-(6-(Butylamino)-1-(4-hydroxycyclohexyl)-1H-pyrazolo[3,4-d]pyrimidin-3-yl)phenyl)methanesulfonamide]	
140 nM	130 nM	CCCCNc1ncc2c(-c3ccc(S(=O)(=O)NC)cc3)nn(C[C@H]3CC[C@H](O)CC3)c2n1 [Compound 7, 4-(1-((trans-4-Hydroxycyclohexyl)methyl)-6-(butylamino)-1H-pyrazolo[3,4-d]pyrimidin-3-yl)-N-methylbenzenesulfonamide]	
62 nM	35 nM	CCCCNc1ncc2c(-c3ccc(S(=O)(=O)NCCC)cc3)nn([C@H]3CC[C@H](O)CC3)c2n1 [Compound 21, trans-4-(6-(Butylamino)-1-(4-hydroxycyclohexyl)-1H-pyrazolo[3,4-d]pyrimidin-3-yl)-N-propylbenzenesulfonamide]	
		CCCCNc1ncc2c(-c3ccc(S(=O)(=O)N4CCCC4)cc3)nn([C@H]3CC[C@H](O)CC3)c2n1 [Compound 34, trans-4-(6-(Butylamino)-3-(4-(pyrrolidin-1-ylsulfonyl)phenyl)-1H-pyrazolo[3,4-d]pyrimidin-1-yl)cyclohexanol]	IC50 ([3]; read-out: IC50 Axl, ATP at Km, mean of two or more independent assays): 46 nM; IC50 ([4]; read-out: IC50 Tyro3, ATP at Km, mean of two or more independent assays): 22 nM; IC50 ([5]; read-out: IC50 Mer, ATP at Km, mean of two or more independent assays): 0.65 nM
67 nM	31 nM	CCCCNc1ncc2c(-c3ccc(S(=O)(=O)NC4CCCC4)cc3)nn([C@H]3CC[C@H](O)CC3)c2n1 [Compound 24, trans-4-(6-(Butylamino)-1-(4-hydroxycyclohexyl)-1H-pyrazolo[3,4-d]pyrimidin-3-yl)-N-cyclopentylbenzenesulfonamide]	
69 nM	28 nM	CCCCNc1ncc2c(-c3ccc(S(=O)(=O)NC4CCOCC4)cc3)nn([C@H]3CC[C@H](O)CC3)c2n1 [Compound 26, trans-4-(6-(Butylamino)-1-(4-hydroxycyclohexyl)-1H-pyrazolo[3,4-d]pyrimidin-3-yl)-N-(tetrahydro-2H-pyran-4-yl)benzenesulfonamide]	
